Here are results for one substance from paper PMC11904948, “Peptide‐Drug Conjugate for Therapeutic Reprogramming of Tumor‐Associated Macrophages in Breast Cancer” (Advanced Science, 2025).

The assay concerns orthotopic 4T1.2 tumors. In words: MACTIDE-V + anti-PD-1 combination therapy in orthotopic 4T1.2. It is filed as in vivo, Balb/c mice. The method, then: 4T1.2 bearing mice were treated with 9 doses of CtrlPep‐V, MACTIDE‐V (1 mg Kg^−1 in Verteporfin per dose), or PBS i.p. every other day according to the scheme in (A). Anti‐PD‐1 injections started 16 days post‐tumor induction (three injections of 200 µg each). Mice were sacrificed on day 29, their tumor weights were analyzed (B), pulmonary metastases area quantified from H&E‐stained sections (C), and their tumors were analyzed with flow cytometry (D–H).
5×10^5 4T1.2 cells in 50 µL of PBS were injected subcutaneously into 4th mammary fat pad. On day 8, mice were sorted into groups based on tumor volume (≈40 mm^3): PBS, anti‐PD‐1, MACTIDE‐V, MACTIDE‐V+anti‐PD‐1. Mice were treated i.p. every other day with 500 µL of MACTIDE‐V (30 nmol, 1mg kg^−1 Verteporfin) or PBS (10 injections in total). On day 18 post‐injection, MACTIDE‐V+anti‐PD‐1 and anti‐PD‐1 groups received recombiMAb anti‐mouse PD‐1 (Bioxcell, Catalog #CP151), a mouse IgG2a monoclonal antibody with the D265A mutation in the Fc fragment which renders it unable to bind to endogenous Fcγ receptors. Mice received three intraperitoneal injections of 200 µg of anti‐PD‐1 dissolved in 500 µL of PBS. […] Five tumors per group were analyzed by FC as described above. TAM/monocytes were defined as Ly6G^−CD11b^+/F4/80^+ population from the CD45^+ population.
The lungs of all mice were fixed in formalin and embedded in paraffin, and later sectioned and stained with H&E by the histology facility of Vall D´Hebron Research Institute (Barcelona, Spain). Five 10 µm‐sections spaced apart 1 mm were taken from the lungs of each mouse (n = 7 mice per group). Then, the slides were scanned, and the metastatic area divided by the total lung area was calculated for each mouse.

Setting [1] is: tumor flow cytometry, five tumors per group.

As for “Vert‐Ahx‐G(CTKSIPPIC)SPGAK‐OH (disulfide) [MACTIDE‐V]”, the primary tumor mass result (MACTIDE-V 30 nmol i.p. every other day, anti-PD-1 three i.p. injections of 200 µg, sacrifice day 29) is given as “significantly reduced the primary tumor mass”. Further, the pulmonary metastases result (metastatic area from H&E sections, n = 7 mice per group, compared with anti-PD-1) is given as “superior effect on reducing pulmonary metastases”. Also, for the setting “tumor flow cytometry”, the B cell infiltration entry was “no differences in B cell infiltration”, the “expression of Granzyme B (GrzB) in CD25^+PD‐1^+ CD8^+ T cells” value is given as “increased” and the “expression of PD‐1 on CD8^+ T cells” value is “reduced”. The “FOXP3^+PD‐1^+ population among CD4^+ T cells” value (tumor flow cytometry, compared to the other experimental conditions) was “decreasing trend”. In addition, under setting [1], the “CD206^+MHCII^+ population of TAM/monocytes” value is reported as “highest increase” and the “CD206^+MHCII^− population of TAM/monocytes” value is on record as “highest decrease”. For the same substance, where the note is “tumor flow cytometry, n = 5”, the “CD86^+MHCII^+ population of TAM/monocytes” value is “significantly increased” and the “CD86^−MHCII^− population of TAM/monocytes” value is on record as “decreased”. Further, the “CD4^+ T cells, CD8^+ T cells and NK cells in tumor” value (tumor flow cytometry, statistically significant only for NK cells) is given as “highest increase”.
